Laboratory results reported in US9890138B2, “Diaminopyrimidine derivatives and processes for the preparation thereof” (YUHAN CORPORATION, priority 2011, dated 2018).
Where a name gives a salt, the structure may show the parent alone.

target: T1, human 5-HT4(a) (Homo sapiens, UniProt Q13639); test: Evaluation of agonistic activity in CHO-K1 cells expressing human 5-HT4(a) (GeneBlAzer HTR4-CRE-bla CHO-K1, beta-lactamase reporter); format: cell-based; conditions: CHO-K1 cells stably expressing human 5-HT4(a)
T1 construct: host or cells: GeneBlAzer HTR4-CRE-bla CHO-K1 cells
T1 sequence (Q13639 1-387 isoform Q13639-2): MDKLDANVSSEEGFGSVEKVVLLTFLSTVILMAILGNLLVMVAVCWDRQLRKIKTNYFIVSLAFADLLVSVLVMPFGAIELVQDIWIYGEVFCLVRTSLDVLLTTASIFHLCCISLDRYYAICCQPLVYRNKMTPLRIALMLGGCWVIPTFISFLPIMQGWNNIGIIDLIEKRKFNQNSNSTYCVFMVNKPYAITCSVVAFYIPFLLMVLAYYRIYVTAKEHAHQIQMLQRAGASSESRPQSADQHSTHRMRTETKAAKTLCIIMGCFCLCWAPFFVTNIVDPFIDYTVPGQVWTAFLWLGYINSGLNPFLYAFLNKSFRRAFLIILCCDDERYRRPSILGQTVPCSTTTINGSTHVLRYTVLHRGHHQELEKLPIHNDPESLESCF
Summary of the method: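 GeneBlAzer HTR4-CRE-bla CHO-K1 cells, 10^4/well overnight, exposed 5 h to compounds at 8 concentrations in medium with 1% DMSO in the added solution. β-lactamase substrate 2 h in dark; 410 nm excitation, 465/535 nm emission ratio; EC50 by non-linear regression.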

Row | EC50 | SMILES
1 | 0.047 nM | CCCCc1cc(N2CCC[C@H]2C)nc(Nc2ccc(C)c(C#N)c2)n1 [Example 230]
2 | 0.0067 nM | CCCCc1cc(N2CC[C@H](NC)C2)nc(Nc2ccc(C)c(C#N)c2)n1 [Example 231]
3 | 0.13 nM | CCCCc1cc(N2CC[C@H](NC(=O)OC(C)(C)C)C2)nc(Nc2ccc(C)c(C#N)c2)n1 [Example 232, (S)-tert-butyl 1-[6-butyl-2-(3-cyano-4-methylphenylamino)pyrimidin-4-yl]pyrrolidin-3-ylcarbamate]
4 | 0.019 nM | CCCCc1cc(N2CC[C@H](N)C2)nc(Nc2cccc(C#N)c2)n1 [Example 233, (S)-3-[4-(3-aminopyrrolidin-1-yl)-6-butylpyrimidin-2-ylamino]benzonitrile dihydrochloride]
5 | 0.0012 nM | CCCCc1cc(N2CC[C@H](N)C2)nc(Nc2ccc(C)c(C#N)c2)n1 [Example 234, (S)-5-[4-(3-aminopyrrolidin-1-yl)-6-butylpyrimidin-2-ylamino]-2-methylbenzonitrile dihydrochloride]
6 | 0.0023 nM | CCCCc1cc(N2CC[C@H](NC(C)C)C2)nc(Nc2cccc(C#N)c2)n1 [Example 235]
7 | 0.209 nM | CCCCc1cc(N2CC[C@H](N(CC)CC)C2)nc(Nc2cccc(C#N)c2)n1 [Example 236]
8 | 0.0013 nM | CCCCc1cc(N2CC[C@H](NCC3CC3)C2)nc(Nc2cccc(C#N)c2)n1 [Example 237]
9 | 0.115 nM | CCCCc1cc(N2CC[C@H](N(CC)CC)C2)nc(Nc2ccc(C)c(C#N)c2)n1 [Example 239]
10 | 0.0025 nM | CCCCc1cc(N2CC[C@H](NCC3CC3)C2)nc(Nc2ccc(C)c(C#N)c2)n1 [Example 240]
11 | 0.012 nM | CCCc1cc(N2CC[C@H](NC(C)=O)C2)nc(Nc2ccc(Cl)c([N+](=O)[O-])c2)n1 [Example 241, (S)—N-{1-[2-(4-chloro-3-nitrophenylamino)-6-propylpyrimidin-4-yl]pyrrolidin-3-yl}acetamide]
12 | 0.058 nM | CCCc1cc(N2CC[C@H](NC(C)=O)C2)nc(Nc2cccc(SC)c2)n1 [Example 242]
13 | 0.011 nM | CCCc1cc(N2CC[C@H](NC(C)=O)C2)nc(Nc2ccc3cc[nH]c3c2)n1 [Example 243]
14 | 0.028 nM | CCCc1cc(N2CC[C@H](NC(C)=O)C2)nc(Nc2cccc(C(F)(F)F)c2)n1 [Example 244]
15 | 0.053 nM | CCCc1cc(N2CC[C@H](NC(C)=O)C2)nc(Nc2ccc3c(C)cc(=O)oc3c2)n1 [Example 245]
16 | 0.04 nM | CCCc1cc(N2CC[C@H](NC(C)=O)C2)nc(Nc2ccc(C)c(Cl)c2)n1 [Example 246]
17 | 0.012 nM | CCCc1cc(N2CC[C@H](NC(C)=O)C2)nc(Nc2cccc([N+](=O)[O-])c2)n1 [Example 247]
18 | 0.016 nM | CCCc1cc(N2CC[C@H](NC(C)=O)C2)nc(Nc2ccc(F)c([N+](=O)[O-])c2)n1 [Example 248, (S)—N-{1-[2-(4-fluoro-3-nitrophenylamino)-6-propylpyrimidin-4-yl]pyrrolidin-3-yl}acetamide]
19 | 0.0018 nM | CCCc1cc(N2CC[C@H](NC(C)=O)C2)nc(Nc2ccc(C)c([N+](=O)[O-])c2)n1 [Example 249, (S)—N-{1-[2-(4-methyl-3-nitrophenylamino)-6-propylpyrimidin-4-yl]pyrrolidin-3-yl}acetamide]
20 | 0.01 nM | CCCc1cc(N2CC[C@H](NC(C)=O)C2)nc(Nc2ccc(F)c(C#N)c2)n1 [Example 251]
21 | 0.0052 nM | CCCc1cc(N2CC[C@H](NC(C)=O)C2)nc(Nc2ccc(C)c(C#N)c2)n1 [Example 252, (S)—N-{1-[2-(3-cyano-4-methylphenylamino)-6-propylpyrimidin-4-yl]pyrrolidin-3-yl}acetamide]

Row | EC50 | SMILES
22 | 0.014 nM | CCCc1cc(N2CC[C@H](NC(C)=O)C2)nc(Nc2ccc(F)c(C(F)(F)F)c2)n1 [Example 253]
23 | 0.0015 nM | CCCc1cc(N2CC[C@H](NC(C)=O)C2)nc(Nc2ccc(N)c([N+](=O)[O-])c2)n1 [Example 254, (S)—N-{1-[2-(4-amino-3-nitrophenylamino)-6-propylpyrimidin-4-yl]pyrrolidin-3-yl}acetamide]
24 | 0.023 nM | CCCc1cc(N2CC[C@H](NC(C)=O)C2)nc(Nc2cc(Cl)ccc2C)n1 [Example 255]
25 | 0.015 nM | CCCc1cc(N2CC[C@H](NC(C)=O)C2)nc(Nc2ccc(N)c(C#N)c2)n1 [Example 260]
26 | 0.0071 nM | CCCc1cc(N2CC[C@H](NC(C)=O)C2)nc(Nc2ccc(N)c(C(F)(F)F)c2)n1 [Example 261]
27 | 0.0039 nM | CCCc1cc(N2CC[C@H](NC(C)=O)C2)nc(Nc2cc(N)cc(C#N)c2)n1 [Example 262]
28 | 0.011 nM | CCCc1cc(N2CC[C@H](NC(C)=O)C2)nc(Nc2cc(N)cc(C(F)(F)F)c2)n1 [Example 268]
29 | 0.204 nM | CCCc1cc(N2CC[C@H](NC(C)=O)C2)nc(Nc2ccc(N)cc2)n1 [Example 270]
30 | 0.087 nM | CCCc1cc(N2CC[C@H](NC(C)=O)C2)nc(Nc2ccc(C)c(O)c2)n1 [Example 274]
31 | 0.078 nM | CCCc1cc(N2CC[C@H](NC(C)=O)C2)nc(Nc2ccc(C)c(OC)c2)n1 [Example 279]
32 | 0.026 nM | CCCc1cc(N2CC[C@H](NC(C)=O)C2)nc(Nc2ccc(C)c(C(F)(F)F)c2)n1 [Example 280]
33 | 0.196 nM | CCCc1cc(N2CC[C@H](NC(C)=O)C2)nc(Nc2ccc(C)c(C)c2)n1 [Example 281]
34 | 0.103 nM | CCCc1cc(N2CC[C@H](NC(C)=O)C2)nc(Nc2ccc(C)c(F)c2)n1 [Example 282]
35 | 0.0047 nM | CCCc1cc(N2CC[C@H](NC(C)=O)C2)nc(Nc2ccc(N)c([N+](=O)[O-])c2)n1 [Example 286, (S)—N-{1-[2-(4-amino-3-nitrophenylamino)-6-propylpyrimidin-4-yl]pyrrolidin-3-yl}acetamide hydrochloride]
36 | 0.062 nM | CCCc1cc(N2CC[C@H](NC(C)=O)C2)nc(Nc2ccc(OC)c(N)c2)n1 [Example 289]
37 | 0.013 nM | CCCc1cc(N2CC[C@H](NC(C)=O)C2)nc(Nc2ccc(Cl)c(N)c2)n1 [Example 290]
38 | 0.0074 nM | CCCc1cc(N2CC[C@H](NC(C)=O)C2)nc(Nc2ccc(F)c(N)c2)n1 [Example 291]
39 | 0.038 nM | CCCc1cc(N2CC[C@H](NC(C)=O)C2)nc(Nc2ccc(C)c(N)c2)n1 [Example 292, (S)—N-{1-[2-(3-amino-4-methylphenylamino)-6-propylpyrimidin-4-yl]pyrrolidin-3-yl}acetamide]
40 | 0.0043 nM | CCCc1cc(N2CCC(NC(C)=O)C2)nc(Nc2ccc(N)c([N+](=O)[O-])c2)n1 (stereo not drawn) [Example 293]
41 | 0.076 nM | CCCc1cc(N2CCC(NC(C)=O)C2)nc(Nc2cccc(C#N)c2)n1 (stereo not drawn) [Example 294, N-{1-[2-(3-cyanophenylamino)-6-propylpyrimidin-4-yl]pyrrolidin-3-yl}acetamide]
42 | 0.048 nM | CCCc1cc(N2CCC(NC(C)=O)C2)nc(Nc2cccc([N+](=O)[O-])c2)n1 (stereo not drawn) [Example 295, N-{1-[2-(3-nitrophenylamino)-6-propylpyrimidin-4-yl]pyrrolidin-3-yl}acetamide]

Row | EC50 | SMILES
43 | 0.039 nM | CCCc1cc(N2CCC(NC(C)=O)C2)nc(Nc2ccc(F)c([N+](=O)[O-])c2)n1 (stereo not drawn) [Example 296]
44 | 0.028 nM | CCCc1cc(N2CCC(NC(C)=O)C2)nc(Nc2ccc(Cl)c([N+](=O)[O-])c2)n1 (stereo not drawn) [Example 297, N-{1-[2-(4-chloro-3-nitrophenylamino)-6-propylpyrimidin-4-yl]pyrrolidin-3-yl}acetamide]
45 | 0.11 nM | CCCc1cc(N2CCC(NC(C)=O)C2)nc(Nc2cccc(C(F)(F)F)c2)n1 (stereo not drawn) [Example 301]
46 | 0.42 nM | CCCc1cc(N2CCC(NC(C)=O)C2)nc(Nc2cccc(Cl)c2)n1 (stereo not drawn) [Example 302]
47 | 0.12 nM | CCCc1cc(N2CCC(NC(C)=O)C2)nc(Nc2cc(Cl)ccc2C)n1 (stereo not drawn) [Example 303]
48 | 0.07 nM | CCCc1cc(N2CCC(NC(C)=O)C2)nc(Nc2ccc(C)c(Cl)c2)n1 (stereo not drawn) [Example 304]
49 | 0.18 nM | CCCc1cc(N2CCC(NC(C)=O)C2)nc(Nc2cccc(SC)c2)n1 (stereo not drawn) [Example 305]
50 | 0.24 nM | CCCc1cc(N2CCC(NC(C)=O)C2)nc(Nc2ccc3[nH]c(C(F)(F)F)nc3c2)n1 (stereo not drawn) [Example 307]
51 | 0.076 nM | CCCc1cc(N2CCC(NC(C)=O)C2)nc(Nc2ccc3c(C)cc(=O)oc3c2)n1 (stereo not drawn) [Example 309]
52 | 0.37 nM | CCCc1cc(N2CCC(NC(C)=O)C2)nc(Nc2cnc3ccccc3c2)n1 (stereo not drawn) [Example 310]
53 | 0.019 nM | CCCc1cc(N2CCC(NC(C)=O)C2)nc(Nc2ccc(N)c(C#N)c2)n1 (stereo not drawn) [Example 311]
54 | 0.023 nM | CCCc1cc(N2CCC(NC(C)=O)C2)nc(Nc2ccc(F)c(N)c2)n1 (stereo not drawn) [Example 312]
55 | 0.078 nM | CCCc1cc(N2CCC[C@H]2C)nc(Nc2ccc(Cl)c([N+](=O)[O-])c2)n1 [Example 313, (R)—N-(4-chloro-3-nitrophenyl)-4-(2-methylpyrrolidin-1-yl)-6-propylpyrimidin-2-amine]
56 | 0.18 nM | CCCc1cc(N2CCC[C@H]2C)nc(Nc2cccc(SC)c2)n1 [Example 314]
57 | 0.028 nM | CCCc1cc(N2CCC[C@H]2C)nc(Nc2ccc3cc[nH]c3c2)n1 [Example 315]
58 | 0.21 nM | CCCc1cc(N2CCC[C@H]2C)nc(Nc2cccc(C(F)(F)F)c2)n1 [Example 316]
59 | 0.14 nM | CCCc1cc(N2CCC[C@H]2C)nc(Nc2ccc3c(C)cc(=O)oc3c2)n1 [Example 317]
60 | 0.16 nM | CCCc1cc(N2CCC[C@H]2C)nc(Nc2ccc(C)c(Cl)c2)n1 [Example 318]
61 | 0.08 nM | CCCc1cc(N2CCC[C@H]2C)nc(Nc2cccc([N+](=O)[O-])c2)n1 [Example 319]
62 | 0.041 nM | CCCc1cc(N2CCC[C@H]2C)nc(Nc2ccc(F)c([N+](=O)[O-])c2)n1 [Example 320, (R)—N-(4-fluoro-3-nitrophenyl)-4-(2-methylpyrrolidin-1-yl)-6-propylpyrimidin-2-amine]
63 | 0.044 nM | CCCc1cc(N2CCC[C@H]2C)nc(Nc2ccc(C)c([N+](=O)[O-])c2)n1 [Example 321, (R)—N-(4-methyl-3-nitrophenyl)-4-(2-methylpyrrolidin-1-yl)-6-propylpyrimidin-2-amine]
